Test results as given in PubChem BioAssay (NCI).
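Here, GI50 denotes the concentration required for 50% inhibition of growth. TGI marks complete inhibition of growth.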

Key:
Assay in all cases: NCI-60 cell line screen, 384-well format
786-0 renal = test system: 786-0 renal
A498 renal = test system: A498 renal
A549 NSCLC = test system: A549 NSCLC
ACHN renal = test system: ACHN renal
BT-549 breast = test system: BT-549 breast
CAKI-1 renal = test system: CAKI-1 renal
CCRF-CEM leukemia = test system: CCRF-CEM leukemia
COLO 205 colon = test system: COLO 205 colon
DU-145 prostate = test system: DU-145 prostate
EKVX NSCLC = test system: EKVX NSCLC
HCC-2998 colon = test system: HCC-2998 colon
HCT-116 colon = test system: HCT-116 colon
HCT-15 colon = test system: HCT-15 colon
HL-60(TB) leukemia = test system: HL-60(TB) leukemia
HOP-62 NSCLC = test system: HOP-62 NSCLC
HOP-92 NSCLC = test system: HOP-92 NSCLC
HS 578T breast = test system: HS 578T breast
HT29 colon = test system: HT29 colon
IGROV1 ovarian = test system: IGROV1 ovarian
K-562 leukemia = test system: K-562 leukemia
KM12 colon = test system: KM12 colon
LOX IMVI melanoma = test system: LOX IMVI melanoma
M14 melanoma = test system: M14 melanoma
MALME-3M melanoma = test system: MALME-3M melanoma
MCF7 breast = test system: MCF7 breast
MDA-MB-435 melanoma = test system: MDA-MB-435 melanoma
MDA-MB-468 breast = test system: MDA-MB-468 breast
MOLT-4 leukemia = test system: MOLT-4 leukemia
NCI-H226 lung = test system: NCI-H226 lung
NCI-H23 lung = test system: NCI-H23 lung
NCI-H322M lung = test system: NCI-H322M lung
NCI-H460 NSCLC = test system: NCI-H460 NSCLC
NCI-H522 lung = test system: NCI-H522 lung
NCI/ADR-RES ovarian = test system: NCI/ADR-RES ovarian
OVCAR-3 ovarian = test system: OVCAR-3 ovarian
OVCAR-4 ovarian = test system: OVCAR-4 ovarian
OVCAR-8 ovarian = test system: OVCAR-8 ovarian
PC-3 prostate = test system: PC-3 prostate
RPMI-8226 leukemia = test system: RPMI-8226 leukemia
RXF 393 renal = test system: RXF 393 renal
SF-268 CNS = test system: SF-268 CNS
SF-295 CNS = test system: SF-295 CNS
SF-539 CNS = test system: SF-539 CNS
SK-MEL-2 melanoma = test system: SK-MEL-2 melanoma
SK-MEL-28 melanoma = test system: SK-MEL-28 melanoma
SK-MEL-5 melanoma = test system: SK-MEL-5 melanoma
SK-OV-3 ovarian = test system: SK-OV-3 ovarian
SN12C renal = test system: SN12C renal
SNB-19 CNS = test system: SNB-19 CNS
SNB-75 CNS = test system: SNB-75 CNS
SW-620 colon = test system: SW-620 colon
TK-10 renal = test system: TK-10 renal
U251 glioblastoma = test system: U251 glioblastoma
UACC-257 melanoma = test system: UACC-257 melanoma
UACC-62 melanoma = test system: UACC-62 melanoma

`CC1=CC(=O)C=CC1=Nc1ccc(N(C)C)cc1` showed a GI50 ([…]-0 renal) of 13 µM, a TGI (786-0 renal) of 25.7 µM and a GI50 (A498 renal) of 11.4 µM. For the same molecule, the TGI (A498 renal) was 23.6 µM, the GI50 (A549 NSCLC) was 15.3 µM and the TGI (A549 NSCLC) was 28.8 µM. The GI50 (ACHN renal) was 5.29 µM, the TGI (ACHN renal) was 18.7 µM and the GI50 (BT-549 breast) was 6.14 µM. It also gave a TGI (BT-549 breast) of 18.6 µM, a GI50 (CAKI-1 renal) of 8.66 µM and a TGI (CAKI-1 renal) of 20.8 µM. The GI50 (CCRF-CEM leukemia) was 1.43 µM, the TGI (CCRF-CEM leukemia) was 2.77 µM and the GI50 (COLO 205 colon) was 2.92 µM. It also gave a TGI (COLO 205 colon) of 7.43 µM, a GI50 (DU-145 prostate) of 14 µM and a TGI (DU-145 prostate) of 27 µM. The GI50 (EKVX NSCLC) was 11.3 µM, the TGI (EKVX NSCLC) was 23.5 µM and the GI50 (HCC-2998 colon) was 5.21 µM. The TGI (HCC-2998 colon) was 20.1 µM, the GI50 (HCT-116 colon) was 2.67 µM and the TGI (HCT-116 colon) was 8.2 µM. For the same molecule, the GI50 (HCT-15 colon) was 11.4 µM, the TGI (HCT-15 colon) was 23.6 µM and the GI50 (HL-60(TB) leukemia) was 1.33 µM. The TGI (HL-60(TB) leukemia) was 2.62 µM, the GI50 (HOP-62 NSCLC) was 3.92 µM and the TGI (HOP-62 NSCLC) was 9.14 µM. The GI50 (HOP-92 NSCLC) was 2.65 µM, the TGI (HOP-92 NSCLC) was 6.19 µM and the GI50 (HS 578T breast) was 12.3 µM. The TGI (HS 578T breast) was 24.8 µM, the GI50 (HT29 colon) was 14.4 µM and the TGI (HT29 colon) was 27.7 µM. The GI50 (IGROV1 ovarian) was 12.1 µM, the TGI (IGROV1 ovarian) was 24.5 µM and the GI50 (K-562 leukemia) was 12.1 µM. For the same molecule, the TGI (K-562 leukemia) was 24.5 µM, the GI50 (KM12 colon) was 12.6 µM and the TGI (KM12 colon) was 25.3 µM. The GI50 (LOX IMVI melanoma) was 11.6 µM, the TGI (LOX IMVI melanoma) was 23.9 µM and the GI50 (M14 melanoma) was 12.5 µM. For the same molecule, the TGI (M14 melanoma) was 25 µM, the GI50 (MALME-3M melanoma) was 15.3 µM and the TGI (MALME-3M melanoma) was 28.6 µM. For the same molecule, the GI50 (MCF7 breast) was 3.46 µM, the TGI (MCF7 breast) was 13.3 µM and the GI50 (MDA-MB-435 melanoma) was 2.52 µM. It also gave a TGI (MDA-MB-435 melanoma) of 6.2 µM, a GI50 (MDA-MB-468 breast) of 0.361 µM and a TGI (MDA-MB-468 breast) of 1.34 µM. The GI50 (MOLT-4 leukemia) was 1.38 µM, the TGI (MOLT-4 leukemia) was 2.68 µM and the GI50 (NCI-H226 lung) was 8.38 µM. The TGI (NCI-H226 lung) was 20.6 µM, the GI50 (NCI-H23 lung) was 4.94 µM and the TGI (NCI-H23 lung) was 18 µM. The GI50 (NCI-H322M lung) was 17.6 µM, the TGI (NCI-H322M lung) was 31.5 µM and the GI50 (NCI-H460 NSCLC) was 16.4 µM. For the same molecule, the TGI (NCI-H460 NSCLC) was 30.2 µM, the GI50 (NCI-H522 lung) was 2.21 µM and the TGI (NCI-H522 lung) was 10.4 µM. It also gave a GI50 (NCI/ADR-RES ovarian) of 6.51 µM, a TGI (NCI/ADR-RES ovarian) of 19.2 µM and a GI50 (OVCAR-3 ovarian) of 1.6 µM. It also gave a TGI (OVCAR-3 ovarian) of 3.06 µM, a GI50 (OVCAR-4 ovarian) of 2.58 µM and a TGI (OVCAR-4 ovarian) of 12.4 µM. For the same molecule, the GI50 (OVCAR-8 ovarian) was 3.49 µM, the TGI (OVCAR-8 ovarian) was 9.79 µM and the GI50 (PC-3 prostate) was 3.22 µM. It also gave a TGI (PC-3 prostate) of 10.4 µM, a GI50 (RPMI-8226 leukemia) of 1.76 µM and a TGI (RPMI-8226 leukemia) of 3.19 µM. It also gave a GI50 (RXF 393 renal) of 4.87 µM, a TGI (RXF 393 renal) of 16.6 µM and a GI50 (SF-268 CNS) of 16.5 µM. It also gave a TGI (SF-268 CNS) of 30.1 µM, a GI50 (SF-295 CNS) of 15.3 µM and a TGI (SF-295 CNS) of 28.7 µM. For the same molecule, the GI50 (SF-539 CNS) was 10.1 µM, the TGI (SF-539 CNS) was 21.7 µM and the GI50 (SK-MEL-2 melanoma) was 1.77 µM. The TGI (SK-MEL-2 melanoma) was 3.26 µM, the GI50 (SK-MEL-28 melanoma) was 15.6 µM and the TGI (SK-MEL-28 melanoma) was 29 µM. It also gave a GI50 (SK-MEL-5 melanoma) of 6.37 µM, a TGI (SK-MEL-5 melanoma) of 19.9 µM and a GI50 (SK-OV-3 ovarian) of 15.5 µM. The TGI (SK-OV-3 ovarian) was 29 µM, the GI50 (SN12C renal) was 11.6 µM and the TGI (SN12C renal) was 23.9 µM. It also gave a GI50 (SNB-19 CNS) of 15.3 µM, a TGI (SNB-19 CNS) of 28.7 µM and a GI50 (SNB-75 CNS) of 17.4 µM. The TGI (SNB-75 CNS) was 31.2 µM, the GI50 (SW-620 colon) was 13.4 µM and the TGI (SW-620 colon) was 26.4 µM. For the same molecule, the GI50 (TK-10 renal) was 10.7 µM, the TGI (TK-10 renal) was 22.6 µM and the GI50 (U251 glioblastoma) was 10.4 µM. The TGI (U251 glioblastoma) was 22.2 µM, the GI50 (UACC-257 melanoma) was 6.22 µM and the TGI (UACC-257 melanoma) was 18.4 µM. It also gave a GI50 (UACC-62 melanoma) of 1.83 µM and a TGI (UACC-62 melanoma) of 3.92 µM.
